Results: patent US20240417410A1, “TRICYCLIC COMPOUNDS FOR THE TREATMENT OF CANCER” (Hoffmann-La Roche Inc., priority 2023, published 2024)
Read-outs that look alike come from different tables or passages of the source.

Legend:
Assay in all cases: Cell proliferation, CTG 3D, 7 d
Assay type in all cases: cell-based
[1] = system: A549; conditions: Homo sapiens
Description: (§1) On Day-1, cells were plated in 384-well round-bottom ultra-low adhesion plates (cat. Corning 3830, with cell density adjusted according to Table 3. The assay plate was then centrifuged at 1000 rpm for 1 minute to ensure even distribution of cells. The plate was incubated at 37° C. in a 5% CO2 atmosphere (It is worth noting that for SW1271 cell plate, it needs to be incubated in an incubator without additional CO2).
(§2) On Day 0, Example 24 or A122 was added to each well using a Tecan HP D300E dispenser, with a 3-fold dilution across 9 doses. The final concentration of DMSO was normalized to 0.2%. The assay plate was then centrifuged at 1000 rpm for 1 minute and incubated for 7 days.
(§3) On Day 7, CellTiter-Glo (CTG) 3D reagent (Promega G9683) was dispensed into each well of a 384-well plate using a multi-drop dispenser (Thermo Scientific 66413). A liquid handling automation workstation (Bravo with a 384-well head) was used to mix the CTG reagents. Plates were left on a shaker for 30 minutes at 450 rpm, shielded from light.
(§4) For data analysis, the XL-fit software (Supplier: ID Business Solutions Ltd., Software version: XL fit 5.0) was utilized. The percentage of inhibition was calculated using the formula: Inhibition %=(Max-Sample value)/(Max-Min)×100. Curve fitting was performed as follows: For complete dose-response curves, the relative IC50 was reported from the fit. For incomplete curves, if minimal inhibition was greater than 50%, an IC50 less than the lowest compound concentration was reported. If minimal inhibition was between 20% and 50%, the bottom was locked at 0% and the IC50 was reported. If maximal inhibition was less than 50%, an IC50 greater than the highest compound concentration was reported.

[2] = system: CHL1; conditions: Homo sapiens, CHL-1; CHL1, KRAS (WT ampl)
Description: as §1, §2, §3, §4

[3] = system: Capan-2; conditions: Homo sapiens
Description: as §1, §2, §3, §4

[4] = system: GAK; conditions: Homo sapiens
Description: as §1, §2, §3, §4

[5] = system: HCT-116; conditions: Homo sapiens
Description: as §1, §2, §3, §4

[6] = system: HEC-1-A; conditions: Homo sapiens, KRAS (G12D)
Description: as §1, §2, §3, §4

[7] = system: HS 578T; conditions: Homo sapiens, HRAS (p.G12D)
Description: as §1, §2, §3, §4

[8] = system: KNS-62; conditions: Homo sapiens
Description: as §1, §2, §3, §4

[9] = system: KU1919; conditions: Homo sapiens, KU-19-19
Description: as §1, §2, §3, §4

[10] = system: KURAMOCHI; conditions: Homo sapiens, KRAS (WT ampl)
Description: as §1, §2, §3, §4

[11] = system: LS1034; conditions: Homo sapiens, LS-1034
Description: as §1, §2, §3, §4

[12] = system: MDA-MB-134-VI; conditions: Homo sapiens
Description: as §1, §2, §3, §4

[13] = system: MDA-MB-231; conditions: Homo sapiens
Description: as §1, §2, §3, §4

[14] = system: MM.1S; conditions: Homo sapiens, MM1.S
Description: as §1, §2, §3, §4

[15] = system: NCI-H1792; conditions: Homo sapiens; NCI-H1792, KRAS (G12C)
Description: as §1, §2, §3, §4

[16] = system: NCI-H2135; conditions: Homo sapiens
Description: as §1, §2, §3, §4

[17] = system: NCI-H2291; conditions: Homo sapiens
Description: as §1, §2, §3, §4

[18] = system: NCI-H2347; conditions: Homo sapiens
Description: as §1, §2, §3, §4

[19] = system: NCI-H358; conditions: Homo sapiens; NCI-H358, KRAS (G12C)
Description: as §1, §2, §3, §4

[20] = system: OCI-AML-3; conditions: Homo sapiens
Description: as §1, §2, §3, §4

[21] = system: ONS-76; conditions: Homo sapiens
Description: as §1, §2, §3, §4

[22] = system: RL95-2; conditions: Homo sapiens
Description: as §1, §2, §3, §4

[23] = system: SW 1088; conditions: Homo sapiens, SW1088
Description: as §1, §2, §3, §4

[24] = system: SW 837; conditions: Homo sapiens, SW837; SW 837, KRAS (G12C)
Description: as §1, §2, §3, §4

[25] = system: TF-1; conditions: Homo sapiens
Description: as §1, §2, §3, §4

[26] = system: THP-1; conditions: Homo sapiens; THP-1, NRAS (p.G12D)
Description: as §1, §2, §3, §4

[27] = system: Toledo; conditions: Homo sapiens
Description: as §1, §2, §3, §4

Q: `CO[C@@H](C)c1ncc(N2CCN(C)CC2)cc1-c1c2c3cc(cc4c3n1CCC4)-c1csc(n1)C[C@H](NC(=O)[C@H]1[C@H](C)[C@@H]1C)C(=O)N1CCC[C@H](N1)C(=O)OCC(C)(C)C2` (atropisomer, axis not shown; (M)) [Example 24, (1r,2R,3S)-N-[(7S,13S)-(20M)-20-[2-[(1S)-1-methoxyethyl]-5-(4-methylpiperazin-1-yl)-3-pyridyl]-17,17-dimethyl-8,14-dioxo-15-oxa-4-thia-9,21,30,31-tetrazahexacyclo[23.3.1.1^2,5.1^9,13.0^19,27.0^21,26]hentriaconta-1 (28),2,5 (31), 19,25 (29),26-hexaen-7-yl]-2,3-dimethyl-cyclopropanecarboxamide] was tested. Which IC50 ([1]; A549, KRAS (G12S), read-out: IC50) did it give?
A: 0.72 nM

Q: What about the IC50 [2] of the same compound?
A: 8.1 nM

Q: And the IC50 ([3]; Capan-2)?
A: 0.23 nM

Q: What about the IC50 ([4]; GAK, NRAS (p.Q61L), read-out: IC50) of the same compound?
A: 10 nM

Q: And the IC50 ([5]; HCT-116, KRAS (G13D), read-out: IC50)?
A: 1.9 nM

Q: What about the IC50 [6] of the same compound?
A: 1.6 nM

Q: And the IC50 [7]?
A: 1.7 nM

Q: And the IC50 ([8]; KNS-62, HRAS (p.Q61L), read-out: IC50)?
A: 2.6 nM

Q: And the IC50 ([9]; KU1919, NRAS (p.Q61R), read-out: IC50)?
A: 2.2 nM

Q: And the IC50 [10]?
A: 100 nM

Q: What about the IC50 ([11]; LS1034, KRAS (A146T), read-out: IC50) of the same compound?
A: 12 nM

Q: And the IC50 ([12]; KRAS (G12R), read-out: IC50)?
A: 1.5 nM

Q: And the IC50 ([13]; MDA-MB-231, KRAS (G13D), read-out: IC50)?
A: 27 nM

Q: And the IC50 ([14]; MM.1S, KRAS (G12A), read-out: IC50)?
A: 0.3 nM

Q: And the IC50 [15]?
A: 0.21 nM

Q: And the IC50 ([16]; NCI-H2135, NRAS (p.Q61K), read-out: IC50)?
A: 0.71 nM

Q: What about the IC50 ([17]; NCI-H2291, KRAS (G12F), read-out: IC50) of the same compound?
A: 0.55 nM

Q: And the IC50 ([18]; NCI-H2347, KRAS (L19F), read-out: IC50)?
A: 2 nM

Q: And the IC50 [19]?
A: 0.12 nM

Q: And the IC50 ([20]; OCI-AML-3, NRAS (p.Q61L), read-out: IC50)?
A: 3.3 nM

Q: And the IC50 ([21]; ONS-76, NRAS (p.Q61R), read-out: IC50)?
A: 0.9 nM

Q: What about the IC50 ([22]; RL95-2, HRAS (p.Q61H), read-out: IC50) of the same compound?
A: 1.3 nM

Q: What about the IC50 ([23]; SW 1088, NRAS (p.Q61K), read-out: IC50) of the same compound?
A: 0.75 nM

Q: What about the IC50 [24] of the same compound?
A: 0.22 nM

Q: And the IC50 ([25]; TF-1, NRAS (p.Q61P), read-out: IC50)?
A: 130 nM

Q: What about the IC50 [26] of the same compound?
A: 0.26 nM

Q: What about the IC50 ([27]; KRAS (G13D), read-out: IC50) of the same compound?
A: 100 nM

Q: With `CCn1c(-c2cc(N3CCN(C)CC3)cnc2[C@H](C)OC)c2c3cc(ccc31)-c1csc(n1)C[C@H](NC(=O)[C@H]1C[C@@H]1C)C(=O)N1CCC[C@H](N1)C(=O)OCC(C)(C)O2` [Example A122, reference compound] as the compound, how does the IC50 ([1]; A549) read?
A: 1.1 nM

Q: And the IC50 [2]?
A: 9.3 nM

Q: What about the IC50 ([3]; Capan-2, KRAS (G12V), read-out: IC50) of the same compound?
A: 0.59 nM

Q: What about the IC50 [4] of the same compound?
A: 19 nM

Q: And the IC50 ([5]; HCT-116)?
A: 1.9 nM

Q: And the IC50 [6]?
A: 1.9 nM

Q: And the IC50 [7]?
A: 3.1 nM

Q: What about the IC50 ([8]; KNS-62) of the same compound?
A: 6.4 nM

Q: What about the IC50 [9] of the same compound?
A: 2.8 nM

Q: What about the IC50 [10] of the same compound?
A: 100 nM

Q: And the IC50 [11]?
A: 7.3 nM

Q: And the IC50 [12]?
A: 2.6 nM

Q: What about the IC50 ([13]; MDA-MB-231) of the same compound?
A: 20 nM

Q: And the IC50 [14]?
A: 0.55 nM

Q: And the IC50 [15]?
A: 0.43 nM

Q: And the IC50 [16]?
A: 1.2 nM

Q: What about the IC50 ([17]; NCI-H2291) of the same compound?
A: 1 nM

Q: And the IC50 ([18]; NCI-H2347)?
A: 4.2 nM

Q: And the IC50 [19]?
A: 0.27 nM

Q: What about the IC50 ([20]; OCI-AML-3) of the same compound?
A: 8.9 nM

Q: And the IC50 ([21]; ONS-76)?
A: 2.1 nM

Q: And the IC50 ([22]; RL95-2)?
A: 2.6 nM

Q: And the IC50 [23]?
A: 2.6 nM

Q: And the IC50 [24]?
A: 0.67 nM

Q: What about the IC50 ([25]; TF-1) of the same compound?
A: 100 nM

Q: And the IC50 [26]?
A: 0.18 nM

Q: And the IC50 [27]?
A: 100 nM
